Measured values: patent US7705156B2, “Heteroaryl (substituted)alkyl N-substituted sulfoximines as insecticides” (Dow AgroSciences LLC, priority 2006, dated 2010)
Like-named read-outs stand apart in the source and are kept apart here.

Columns and labels:
[1] = tested on: Cotton Aphid (Aphis gossvpii); experiment: Insecticidal test for cotton aphid in foliar spray assay; format: in vivo; settings: for pest or weed control at 50 ppm / pest or weed control at 200 ppm: 72 h; for pest or weed control at 50 ppm: read-out: CA 50: % control at 50 ppm against cotton aphid in foliar spray tests; for pest or weed control at 200 ppm: read-out: CA 200: % control at 200 ppm against cotton aphid in foliar spray tests; for % Control at ppm against cotton aphid on squash, foliar spray, 0.781 ppm / % Control at ppm against cotton aphid on squash, foliar spray, 3.125 ppm / % Control at ppm against cotton aphid on squash, foliar spray, 12.5 ppm / % Control at ppm against cotton aphid on squash, foliar spray, 50 ppm: rundown assay
Description: Insecticidal Test for Cotton Aphid (Aphis gossvpii) in Foliar Spray Assay
Squash with fully expanded cotyledon leaves were trimmed to one cotyledon per plant and infested with cotton aphid (wingless adult and nymph) 1 day prior to chemical application. Each plant was examined before chemical application to ensure proper infestation (ca. 30-70 aphids per plant). Compounds (2 mg) were dissolved in 2 ml of acetone:methanol (1:1) solvent, forming stock solutions of 1000 ppm. The stock solutions were diluted 5× with 0.025% Tween 20 in H2O to obtain the highest test solution at 200 ppm. Lower test concentrations (50, 12.5, 3.13 and 0.78 ppm) were prepared by making sequential 4× dilutions from the 200 ppm solution with a diluent consisting 80 parts of 0.025% Tween 20 in H2O and 20 parts of acetone:methanol (1:1). A hand-held Devilbiss sprayer was used to apply the spray solutions until runoff to both sides of the squash cotyledon leaves. Four plants (4 replications) were used for each concentration of each compound. Reference plants (solvent check) were sprayed with the diluent only. Treated plants were held in a holding room for 3 days at approximately 23° C. and 40% RH before the number of live aphids on each plant was recorded. Insecticidal activity was measured by Corrected % Control using Abbott's correction formula and the values for the lower test concentrations are presented in Table 2: Corrected % Control=100*(X−Y)/X • where X=No. of live aphids on solvent check plants • Y=No. of live aphids on treated plants Insecticidal Test for Green Peach Aphid (Myzus persicae) in Foliar Spray Assay

[2] = tested on: Green Peach Aphid (Myzus persicae); experiment: Insecticidal test for green peach aphid in foliar spray assay; format: in vivo; settings: 72 h, foliar spray on cabbage seedlings, 3 days, Abbott-corrected; for pest or weed control at 200 ppm: read-out: GPA 200: % control at 200 ppm against green peach aphid in foliar spray tests; for pest or weed control at 50 ppm: read-out: GPA 50: % control at 50 ppm against green peach aphid in foliar spray tests
Description: Cabbage seedlings grown in 3-inch pots, with 2-3 small (3-5 cm) true leaves, were used as test substrate. The seedlings were infested with 20-50 green peach aphids (wingless adult and nymph) 2-3 days prior to chemical application. Four seedlings were used for each treatment. Compounds (2 mg) were dissolved in 2 ml of acetone:methanol (1:1) solvent, forming stock solutions of 1000 ppm. The stock solutions were diluted 5× with 0.025% Tween 20 in H2O to obtain the highest test solution at 200 ppm. A lower test concentration of 50 ppm was prepared by making a 4× dilution from the 200 ppm solution with a diluent consisting 80 parts of 0.025% Tween 20 in H2O and 20 parts of acetone: methanol (1:1). A hand-held Devilbiss sprayer was used for spraying a solution to both sides of cabbage leaves until runoff. Reference plants (solvent check) were sprayed with the diluent only. Treated plants were held in a holding room for three days at approximately 23° C. and 40% RH prior to grading. Evaluation was conducted by counting the number of live aphids per plant under a microscope. Insecticidal activity was measured by using Abbott's correction formula: Corrected % Control=100*(X−Y)/X • where X=No. of live aphids on solvent check plants • Y=No. of live aphids on treated plants The Corrected % Control values from the above assays are given in Table 2

[3] = 50 ppm, foliar spray on squash, 3 days, Abbott-corrected
[4] = 200 ppm, foliar spray on squash, 3 days, Abbott-corrected

SMILES	pest or weed control at 50 ppm ([1]; foliar)	pest or weed control at 200 ppm ([1]; foliar)	% Control at ppm against cotton aphid on squash, foliar spray, 0.781 ppm [1]	% Control at ppm against cotton aphid on squash, foliar spray, 3.125 ppm [1]	% Control at ppm against cotton aphid on squash, foliar spray, 12.5 ppm [1]	% Control at ppm against cotton aphid on squash, foliar spray, 50 ppm ([1]; 50 ppm)	pest or weed control at 50 ppm [1, 3]	pest or weed control at 200 ppm [1, 4]	pest or weed control at 200 ppm [2]	pest or weed control at 50 ppm [2]
CS(=O)(=NC#N)C(Cc1cscn1)c1ccc(Cl)nc1 (stereo not shown) [Compound 1, [1-(6-chloropyridin-3-yl)-2-(1,3-thiazol-4-yl)ethyl](methyl)oxido-λ^4-sulfanylidenecyanamide]	90 to 100%	90 to 100%	–	–	–	–	–	–	–	–
CS(=O)(=NC#N)C(CC1CC1)c1ccc(C(F)(F)F)nc1 (stereo not shown) [Compound 2, {1-[6-(trifluoromethyl)pyridin-3-yl]-2-(cyclopropyl)ethyl}(methyl)oxido-λ^4-sulfanylidenecyanamide]	–	–	C (70-79)	A (90-100)	A (90-100)	A (90-100)	90 to 100%	90 to 100%	70 to 79%	–
CS(=O)(=NC#N)[C@@H]1CCC[C@@H]1c1ccc(Cl)nc1 (stereo partly drawn) [Compound 3, cis-[2-(6-chloropyridin-3-yl)cyclopentyl](methyl)-oxido-λ^4-sulfanylidenecyanamide]	–	–	–	–	–	–	–	60 to 69%	60 to 69%	–
CS(=O)(=NC#N)C1CCC(c2ccc(Cl)nc2)C1 (stereo not drawn) [Compound 4, cis and trans-[3-(6-chloropyridin-3-yl)cyclopentyl]-(methyl)oxido-λ^4-sulfanylidenecyanamide]	–	–	–	–	–	–	70 to 79%	90 to 100%	80 to 89%	–
N#CN=S1(=O)CCC(c2ccc(C(F)(F)F)nc2)C1 (stereo not shown) [Compound 5, 1-oxido-3-[6-(trifluoromethyl)pyridin-3-yl]tetrahydro-1H-1λ^4-thien-1-ylidenecyanamide]	–	–	F (Less than 50)	C (70-79)	A (90-100)	A (90-100)	90 to 100%	90 to 100%	80 to 89%	50 to 59%
CS(=O)(=NC#N)C(Cc1ccc(Cl)nc1)c1ccc(Cl)nc1 (stereo not shown) [Compound 6]	–	–	–	–	–	–	90 to 100%	90 to 100%	–	–
CS(=O)(=NC#N)C(Cc1ccc(Cl)cc1)c1ccc(Cl)nc1 (stereo not shown) [Compound 7]	–	–	–	–	–	–	90 to 100%	90 to 100%	–	–
COc1ccc(CC(c2ccc(Cl)nc2)S(C)(=O)=NC#N)cc1 (stereo not shown) [Compound 8]	–	–	–	–	–	–	90 to 100%	90 to 100%	–	–
CC(C)C(c1ccc(Cl)nc1)S(C)(=O)=NC#N (stereo not shown) [Compound 9]	–	–	–	–	–	–	90 to 100%	90 to 100%	–	–
COCCC(c1ccc(Cl)nc1)S(C)(=O)=NC#N (stereo not shown) [Compound 10]	–	–	–	–	–	–	90 to 100%	90 to 100%	60 to 69%	–
COCC(COC)(c1ccc(Cl)nc1)S(C)(=O)=NC#N (stereo not shown) [Compound 11]	–	–	–	–	–	–	90 to 100%	90 to 100%	–	–
CS(=O)(=NC#N)C(CCF)c1ccc(Cl)nc1 (stereo not shown) [Compound 12]	–	–	A (90-100)	A (90-100)	A (90-100)	A (90-100)	90 to 100%	90 to 100%	90 to 100%	90 to 100%
CS(=O)(=NC#N)C(CC1CC1)c1ccc(Cl)nc1 (stereo not shown) [Compound 13]	–	–	–	–	–	–	90 to 100%	90 to 100%	–	–
C#CCC(c1ccc(Cl)nc1)S(C)(=O)=NC#N (stereo not shown) [Compound 14]	–	–	–	–	–	–	90 to 100%	90 to 100%	–	–
CS(=O)(=NC#N)C(C/C=C/Cl)c1ccc(Cl)nc1 (stereo not shown) [Compound 15]	–	–	–	–	–	–	90 to 100%	90 to 100%	–	–
C#CCC(c1ccc(C(F)(F)F)nc1)S(C)(=O)=NC#N (stereo not shown) [Compound 16]	–	–	B (80-89)	A (90-100)	A (90-100)	A (90-100)	90 to 100%	90 to 100%	90 to 100%	80 to 89%
CS(=O)(=NC#N)C(C/C=C/Cl)c1ccc(C(F)(F)F)nc1 (stereo not shown) [Compound 17]	–	–	D (60-69)	B (80-89)	A (90-100)	A (90-100)	90 to 100%	90 to 100%	90 to 100%	70 to 79%
CC(C)C(c1ccc(C(F)(F)F)nc1)S(C)(=O)=NC#N (stereo not shown) [Compound 18]	–	–	A (90-100)	A (90-100)	A (90-100)	A (90-100)	90 to 100%	90 to 100%	90 to 100%	60 to 69%
